According to patent publication US9550811B2, “Peptide scaffold design” (BIONOR IMMUNO AS, priority 2010, dated 2017):
Where no end group is shown, it is not given here. [ ]: non-standard residue; d: D form. Cit = NC(=O)NCCC[C@H](N)C(=O)O

Assays:
Assay in all cases: REVEAL binding assay
Settings in all cases: score as percentage of the signal generated by the positive control peptide
HLA-A29 = system: HLA-A29
HLA-B14 = system: HLA-B14
HLA-B35 = system: HLA-B35
HLA-B8 = system: HLA-B8
HLA-A11 = HLA-A11 (Homo sapiens, UniProt P04439, A114D/F33Y/S129P)
Outline: (§1)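 Synthetic nonamer peptides were tested for their ability to bind and stabilize MHC class I–peptide complexes, detected by the native conformation of the complex. Each peptide is scored relative to a positive-control known T-cell epitope.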

HLA-A3 = HLA-A3 (Homo sapiens, UniProt P04439)
Chain of HLA-A3 (P04439 25-299): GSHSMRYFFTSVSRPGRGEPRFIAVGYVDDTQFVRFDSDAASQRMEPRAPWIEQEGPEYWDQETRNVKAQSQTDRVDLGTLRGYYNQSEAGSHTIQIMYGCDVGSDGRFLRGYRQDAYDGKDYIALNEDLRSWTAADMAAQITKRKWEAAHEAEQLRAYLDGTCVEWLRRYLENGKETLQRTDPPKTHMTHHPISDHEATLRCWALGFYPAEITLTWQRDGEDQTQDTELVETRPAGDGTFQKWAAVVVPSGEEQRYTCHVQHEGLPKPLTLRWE
Chain of HLA-A3 (P61769 21-119, further chain): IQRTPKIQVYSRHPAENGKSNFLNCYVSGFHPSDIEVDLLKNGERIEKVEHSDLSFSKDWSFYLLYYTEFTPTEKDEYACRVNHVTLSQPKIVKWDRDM
Outline: as §1

HLA-A2 = HLA-A2 (Homo sapiens, UniProt P04439, D140Y/D185E/D98H/E176V/E277Q/G131W/G231S/I119V/I121R/I166T/I218V/N151K/N90K/P208A/P217A/Q86G/Q94H/R138H/R169H)
Outline: as §1

HLA-B27 = HLA-B27 (Homo sapiens, UniProt P01889, D138H/D201E/E176V/E204Q/G107R/H137Y/K202T/N104T/N87E/Q56L/Q94K/R106L/R155S/R180L/S101D/S121N/S48T/Y140D/Y33H/Y91C)
Outline: as §1

HLA-B7 = HLA-B7 (Homo sapiens, UniProt P01889)
Chain of HLA-B7 (P61769 21-119): as the sequence (P61769 21-119, further chain) above
Chain of HLA-B7 (P01889 25-299): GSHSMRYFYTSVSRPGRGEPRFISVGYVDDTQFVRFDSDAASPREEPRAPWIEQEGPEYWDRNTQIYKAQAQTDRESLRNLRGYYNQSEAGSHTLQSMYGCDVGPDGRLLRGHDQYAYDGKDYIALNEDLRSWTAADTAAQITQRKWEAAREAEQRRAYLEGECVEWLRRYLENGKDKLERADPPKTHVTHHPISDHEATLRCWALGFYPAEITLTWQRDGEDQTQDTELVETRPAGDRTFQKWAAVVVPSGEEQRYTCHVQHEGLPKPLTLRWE
Outline: as §1

HLA-B15 = system: HLA-B15
HLA-A24 = system: HLA-A24
HLA-A1 = system: HLA-A1
Procedure: Binding properties to HLA for the ninemers listed in table 6 were tested for the following HLA-classes:
HLA-A1, HLA-A2, HLA-A3, HLA-A11, HLA-A24, HLA-A29, HLA-B7, HLA-B8, HLA-B14, HLA-B15, HLA-B27, HLA-B35, HLA-B40.
The REVEAL™ binding assay determined the ability of each candidate peptide to bind to one or more MHC class I alleles and stabilizing the MHC-peptide complex. […] Detection is based on the presence or absence of the native conformation of the MHC-peptide complex. Each peptide is given a score relative to the positive control peptide, which is a known T cell epitope.

HLA-B40 = system: HLA-B40
Outline: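 Each candidate ninemer is assessed for binding and stabilizing the allele's MHC–peptide complex, detected as native conformation. Results are given relative to a positive control epitope, and an intermediate binder serves as a performance check.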

Row | Substance | REVEAL binding score, HLA-type A29 (HLA-A29) | REVEAL binding score, HLA-type B14 (HLA-B14) | REVEAL binding score, HLA-type B35 (HLA-B35) | REVEAL binding score, HLA-type B8 (HLA-B8) | REVEAL binding score, HLA-type A11 (HLA-A11) | REVEAL binding score, HLA-type A3 (HLA-A3) | REVEAL binding score, HLA-type A2 (HLA-A2) | REVEAL binding score, HLA-type B27 (HLA-B27) | REVEAL binding score, HLA-type B7 (HLA-B7) | REVEAL binding score, HLA-type B15 (HLA-B15) | REVEAL binding score, HLA-type A24 (HLA-A24) | REVEAL binding score, HLA-type A1 (HLA-A1) | REVEAL binding score, HLA-type B40 (HLA-B40)
1 | NYATGNLPG | 34.26% | 0.79% | 6.44% | 9.96% | 4.69% | 8.65% | 3.94% | 2.33% | 0.51% | 6.06% | 1.13% | 11.16% | 75.28%
2 | PRLGVRATR | 13.35% | 0.14% | 1.65% | 11.46% | 2.73% | 3.63% | 6.85% | 0.86% | 42.64% | 10.04% | 0.97% | 17.77% | 14.52%
3 | P[Cit]IGVRAT[Cit] | 14.14% | 0.19% | 2.45% | 9.47% | 1.72% | 2.52% | 7.36% | 0.94% | 1.91% | 12.64% | 0.21% | 18.83% | 49.29%
4 | QIIGGNYLI | 13.60% | 0.40% | 8.99% | 10.61% | 4.06% | 6.30% | 73.54% | 0.91% | 52.04% | 29.59% | 12.60% | 21.63% | 83.60%
5 | QIVGGVYLL | 13.36% | 0.37% | 4.01% | 13.15% | 1.96% | 2.36% | 57.04% | 0.60% | 28.66% | 15.07% | 1.01% | 20.25% | 24.51%
6 | RALAHGVRV | 29.73% | 0.46% | 6.07% | 18.08% | 4.45% | 2.51% | 8.69% | 6.37% | 2.55% | 11.84% | 0.84% | 20.77% | 70.26%
7 | RNLGKVIDT | 10.18% | 0.61% | 4.40% | 13.80% | 6.22% | 3.15% | 6.42% | 2.73% | 2.42% | 11.79% | 1.04% | 18.90% | 48.14%
